The text below walks through data of patent US20260263403A1, “COMPOSITIONS AND METHODS FOR TREATING TRAUMATIC BRAIN INJURY” (THE CHILDREN'S HOSPITAL OF PHILADELPHIA, priority 2023, published 2026).

The test system of data set [1] is acetate levels in the brain. Particulars: dietary supplement, within one hour of administration; cited from earlier work.
A short description of data set [2]: solubility/precipitation of BCAA drink during study preparation. Type of data set: physicochemical. To be noted: 60 g/day dose divided twice daily, initial study preparation.
Text: The three BCAAs, valine, isoleucine, and leucine, were combined together in a 1:1:1 ratio for the four treatment doses. […] Given the unknown optimal dose of BCAA supplementation for concussion, doses of 15 g, 30 g, 45 g, and 60 g divided twice daily were chosen as initial treatment doses.

The structures appear in SMILES notation.

In the case of `CC(=O)OCC(COC(C)=O)OC(C)=O` [GTA, glyceryl triacetate], the “increase of acetate levels in the brain” value in data set [1] was “over 15 fold”. In the case of `CC(C)C[C@H](N)C(=O)O` [leucine], the “precipitation at the highest dose” value in data set [2] is “precipitating at a lower concentration than expected”.
